Results from US10428080B2, “TBK/IKK inhibitor compounds and uses thereof” (Merck Patent GmbH, priority 2015, dated 2019).
pIC50: −log10 of the molar value. Where a name gives a salt, the structure may show the parent alone.

Legend:
[1] = target: T1, IKKε (Homo sapiens, UniProt Q14164); assay: IKKe Biochemical Assay; settings: read-out: IKKε IC50
T1 sequence (Q14164 1-716): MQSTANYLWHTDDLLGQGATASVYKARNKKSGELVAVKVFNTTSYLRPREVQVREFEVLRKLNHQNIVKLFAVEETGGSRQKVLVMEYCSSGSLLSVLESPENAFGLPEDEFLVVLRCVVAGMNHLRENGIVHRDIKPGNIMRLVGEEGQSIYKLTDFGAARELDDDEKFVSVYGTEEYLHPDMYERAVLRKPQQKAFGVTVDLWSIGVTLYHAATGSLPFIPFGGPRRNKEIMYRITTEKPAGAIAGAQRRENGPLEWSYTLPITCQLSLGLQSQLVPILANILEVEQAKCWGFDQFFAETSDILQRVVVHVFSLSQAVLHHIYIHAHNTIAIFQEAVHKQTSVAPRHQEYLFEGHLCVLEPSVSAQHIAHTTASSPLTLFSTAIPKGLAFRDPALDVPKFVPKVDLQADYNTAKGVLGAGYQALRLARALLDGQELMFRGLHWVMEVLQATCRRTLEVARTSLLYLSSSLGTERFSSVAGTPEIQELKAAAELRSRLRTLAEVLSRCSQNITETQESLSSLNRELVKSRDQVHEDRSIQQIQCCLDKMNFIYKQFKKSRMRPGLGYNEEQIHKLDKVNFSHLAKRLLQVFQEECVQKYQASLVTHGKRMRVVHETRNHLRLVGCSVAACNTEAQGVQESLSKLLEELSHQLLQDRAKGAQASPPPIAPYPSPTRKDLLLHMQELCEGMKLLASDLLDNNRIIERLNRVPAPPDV
Procedure, shortened: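 Activity was measured as mobility-shift separation of phosphorylated from unphosphorylated substrate on a LabChip EZ Reader. Compound was titrated from 30 uM final in 10 points, 1:4 steps, with 1% DMSO, and enzyme plus substrate reacted 90 min at 25° C before stop buffer. Control wells held 10 uM staurosporine.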

[2] = target: T2, TBK1 (Homo sapiens, UniProt Q9UHD2); assay: TBK Biochemical Assay; settings: read-out: TBK1 IC50
T2 sequence (Q9UHD2 1-729): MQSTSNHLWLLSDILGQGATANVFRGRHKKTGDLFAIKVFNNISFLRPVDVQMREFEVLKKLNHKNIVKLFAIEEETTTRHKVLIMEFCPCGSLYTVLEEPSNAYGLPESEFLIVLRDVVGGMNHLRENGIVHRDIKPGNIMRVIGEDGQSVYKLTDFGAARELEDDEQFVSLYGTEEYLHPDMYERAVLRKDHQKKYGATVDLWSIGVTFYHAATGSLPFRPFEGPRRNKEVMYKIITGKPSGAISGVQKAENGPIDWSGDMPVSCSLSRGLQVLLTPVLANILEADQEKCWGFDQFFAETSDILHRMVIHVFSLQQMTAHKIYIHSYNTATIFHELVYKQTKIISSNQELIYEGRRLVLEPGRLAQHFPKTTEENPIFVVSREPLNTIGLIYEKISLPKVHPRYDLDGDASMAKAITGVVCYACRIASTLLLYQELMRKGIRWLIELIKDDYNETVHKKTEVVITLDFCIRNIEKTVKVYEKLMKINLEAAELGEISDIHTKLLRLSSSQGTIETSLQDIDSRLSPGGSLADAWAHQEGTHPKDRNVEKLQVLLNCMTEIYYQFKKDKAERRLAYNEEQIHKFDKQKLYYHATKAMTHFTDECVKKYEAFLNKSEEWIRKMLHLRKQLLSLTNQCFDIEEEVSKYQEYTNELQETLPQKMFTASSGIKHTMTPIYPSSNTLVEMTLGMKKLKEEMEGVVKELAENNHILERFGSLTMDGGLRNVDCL
Procedure, shortened: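 Caliper LabChip mobility-shift readout of substrate and product after 90 min of TBK1 reaction at 25° C and stop-buffer addition. Compounds tested in 1:4 serial dilution over 10 points from 30 uM final at 1% DMSO; staurosporine 10 uM final defines full inhibition.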

**Q.** `C[C@@H]1COC[C@H](C)[C@@H]1Oc1ccc(-c2ccnc3cc(-c4ccc(C(=O)N(C)C)cc4)oc23)cc1C#N` (single isomer, unassigned) [Compound 221, 4-(7-(3-cyano-4-(3,5-dimethyl-tetrahydro-2H-pyran-4-yloxy)phenyl)furo[3,2-b]pyridin-2-yl)-N,N-dimethylbenzamide hydrochloride] was tested. Which pIC50 [1] did it give?
**A.** 6.00 to 7.00

**Q.** What about the pIC50 [2] of the same molecule?
**A.** 6.00 to 7.00

**Q.** `N#Cc1cc(-c2ccnc3cc(-c4ccc(C(=O)O)cc4)oc23)ccc1OC1CC(CO)(CCl)C1` (centres unmarked) [Compound 162] was tested. Which pIC50 [1] did it give?
**A.** > 7.00

**Q.** What about the pIC50 [2] of the same molecule?
**A.** 6.00 to 7.00

**Q.** How did the pIC50 [1] turn out when `N#Cc1cc(-c2ccnc3cc(-c4ccc(C(=O)O)cc4)oc23)ccc1Oc1ccncc1` [Compound 192, 4-{7-[3-Cyano-4-(pyridin-4-yloxy)-phenyl]-furo[3,2-b]pyridin-2-yl}-benzoic acid] was run?
**A.** < 5.30

**Q.** What about the pIC50 [2] of the same molecule?
**A.** < 5.30

**Q.** Which results are given for `COc1cc(C(=O)N2CCC3(CCC3)C2)ccc1-c1cc2nccc(-c3ccc(OC4CCOCC4)c(C#N)c3)c2o1` [Compound 114, 5-{2-[4-(6-Aza-spiro[3.4]octane-6-carbonyl)-2-methoxy-phenyl]-furo[3,2-b]pyridin-7-yl}-2-(tetrahydro-pyran-4-yloxy)-benzonitrile]?
**A.** pIC50 [1]: > 7.00; pIC50 [2]: > 7.00

**Q.** With `COc1cc(C(=O)N(C)C)cnc1-c1cc2ncc(C)c(-c3ccc(NC4CCOCC4)c(C#N)c3)c2o1` [Compound 319, 6-(7-(3-cyano-4-(tetrahydro-2H-pyran-4-ylamino)phenyl)-6-methylfuro[3,2-b]pyridin-2-yl)-5-methoxy-N,N-dimethylnicotinamide] as the molecule, how does the pIC50 [1] read?
**A.** 5.30 to 6.00

**Q.** What about the pIC50 [2] of the same molecule?
**A.** 5.30 to 6.00

**Q.** With `CN(C)C(=O)c1ccc(-c2cc3nccc(-c4ccc(OC5CCNCC5)c(C#N)c4)c3o2)cc1` [Compound 185, 4-{7-[3-Cyano-4-(piperidin-4-yloxy)-phenyl]-furo[3,2-b]pyridin-2-yl}-N,N-dimethyl-benzamide hydrochloride] as the molecule, how does the pIC50 [1] read?
**A.** 6.00 to 7.00

**Q.** And the pIC50 [2]?
**A.** 5.30 to 6.00

**Q.** `COc1cc(C(=O)N2CCC2)ccc1-c1cc2nccc(-c3ccc(OC4CCOCC4)c(C#N)c3)c2o1` [Compound 44, 5-{2-[4-(Azetidine-1-carbonyl)-2-methoxy-phenyl]-furo[3,2-b]pyridin-7-yl}-2-(tetrahydro-pyran-4-yloxy)-benzonitrile] was tested. Which pIC50 [1] did it give?
**A.** > 7.00

**Q.** What about the pIC50 [2] of the same molecule?
**A.** > 7.00

**Q.** How did the pIC50 [1] turn out when `N#Cc1cc(-c2ccnc3cc(-c4ccc(C(=O)O)cc4)oc23)ccc1N1CC[C@H](F)C1` [Compound 107, 4-{7-[3-Cyano-4-((S)-3-fluoro-pyrrolidin-1-yl)-phenyl]-furo[3,2-b]pyridin-2-yl}-benzoic acid] was run?
**A.** > 7.00

**Q.** What about the pIC50 [2] of the same molecule?
**A.** > 7.00

**Q.** Which results are given for `COc1cc(C(=O)NC2CCOCC2F)ccc1-c1cc2nccc(-c3ccc(NC4CCOCC4)c(C#N)c3)c2o1` (centres unmarked) [Compound 132, 4-{7-[3-Cyano-4-(tetrahydro-pyran-4-ylamino)-phenyl]-furo[3,2-b]pyridin-2-yl}-N-(3-fluoro-tetrahydro-pyran-4-yl)-3-methoxy-benzamide]?
**A.** pIC50 [1]: > 7.00; pIC50 [2]: > 7.00

**Q.** What does the source list for `COc1cc(C(=O)N(C)CCO)cnc1-c1cc2ncc(OC)c(-c3ccc(OC4CCOCC4)c(C#N)n3)c2o1` [Compound 362, 6-[7-[6-cyano-5-(oxan-4-yloxy)pyridin-2-yl]-6-methoxyfuro[3,2-b]pyridin-2-yl]-N-(2-hydroxyethyl)-5-methoxy-N-methylpyridine-3-carboxamide]?
**A.** pIC50 [1]: 6.00 to 7.00; pIC50 [2]: 6.00 to 7.00

**Q.** How did the pIC50 [1] turn out when `CN(C)C(=O)c1ccc(-c2cc3nccc(-c4cc(F)c(N(C)C5CCOCC5)c(C#N)c4)c3o2)cc1` [Compound 225, 4-(7-(3-cyano-5-fluoro-4-(methyl(tetrahydro-2H-pyran-4-yl)amino)phenyl)furo[3,2-b]pyridin-2-yl)-N,N-dimethylbenzamide hydrochloride] was run?
**A.** 6.00 to 7.00

**Q.** And the pIC50 [2]?
**A.** 6.00 to 7.00

**Q.** `COc1cc(C(=O)NC2C3COCC32)ncc1-c1cc2nccc(-c3ccc(N4CC[C@@H](F)C4)c(C#N)c3)c2o1` (stereo partly drawn) [Compound 469, 5-(7-[3-cyano-4-[(3R)-3-fluoropyrrolidin-1-yl]phenyl]furo[3,2-b]pyridin-2-yl)-4-methoxy-N-[3-oxabicyclo[3.1.0]hexan-6-yl]pyridine-2-carboxamide] was tested. Which pIC50 [1] did it give?
**A.** > 7.00

**Q.** And the pIC50 [2]?
**A.** > 7.00

**Q.** How did the pIC50 [1] turn out when `COc1cc(C(=O)N(C)C)ncc1-c1cc2nccc(-c3cc(C#N)c(OC4CCOCC4)cn3)c2o1` [Compound 386, 5-[7-[4-cyano-5-(oxan-4-yloxy)pyridin-2-yl]furo[3,2-b]pyridin-2-yl]-4-methoxy-N,N-dimethylpyridine-2-carboxamide] was run?
**A.** 6.00 to 7.00

**Q.** What about the pIC50 [2] of the same molecule?
**A.** 6.00 to 7.00

**Q.** `CN(C)C(=O)c1ccc(-c2cc3nccc(-c4ccc(OC5CC(C)(C)NC(C)(C)C5)c(C#N)c4)c3o2)cc1` [Compound 216, 4-(7-(3-cyano-4-(2,2,6,6-tetramethylpiperidin-4-yloxy)phenyl)furo[3,2-b]pyridin-2-yl)-N,N-dimethylbenzamide] was tested. Which pIC50 [1] did it give?
**A.** < 5.30

**Q.** What about the pIC50 [2] of the same molecule?
**A.** < 5.30

**Q.** How did the pIC50 [1] turn out when `CC1CC(Nc2ccc(-c3ccnc4cc(-c5ccc(C(=O)N(C)C)cc5)oc34)cc2C#N)CC(C)O1` (centres unmarked) [Compound 215, 4-(7-(3-cyano-4-(2,6-dimethyl-tetrahydro-2H-pyran-4-ylamino)phenyl)furo[3,2-b]pyridin-2-yl)-N,N-dimethylbenzamide hydrochloride] was run?
**A.** 6.00 to 7.00

**Q.** And the pIC50 [2]?
**A.** 5.30 to 6.00

**Q.** `COc1cc(C(=O)N(C)CCO)cnc1-c1cc2ncc(Cl)c(-c3ccc(OC4CCOCC4)c(C#N)c3)c2o1` [Compound 342, 6-[6-chloro-7-[3-cyano-4-(oxan-4-yloxy)phenyl]furo[3,2-b]pyridin-2-yl]-N-(2-hydroxyethyl)-5-methoxy-N-methylpyridine-3-carboxamide hydrochloride] was tested. Which pIC50 [1] did it give?
**A.** 5.30 to 6.00

**Q.** What about the pIC50 [2] of the same molecule?
**A.** 5.30 to 6.00

**Q.** What does the source list for `COc1cc(-c2cc3nccc(-c4ccc(NC5CCOCC5)c(C#N)c4)c3o2)ncc1C(=O)N(C)C` [Compound 392, 6-(7-[3-cyano-4-[(oxan-4-yl)amino]phenyl]furo[3,2-b]pyridin-2-yl)-4-methoxy-N,N-dimethylpyridine-3-carboxamide]?
**A.** pIC50 [1]: 6.00 to 7.00; pIC50 [2]: 6.00 to 7.00

**Q.** `CN(C)C(=O)c1ccc(-c2cc3nccc(-c4ccc(OC5CCOCC5)c(C#N)c4)c3o2)c(C(F)(F)F)c1` [Compound 240, 4-(7-(3-cyano-4-(tetrahydro-2H-pyran-4-yloxy)phenyl)furo[3,2-b]pyridin-2-yl)-N,N-dimethyl-3-(trifluoromethyl)benzamide] was tested. Which pIC50 [1] did it give?
**A.** 6.00 to 7.00

**Q.** And the pIC50 [2]?
**A.** 6.00 to 7.00

**Q.** `CN(C)C(=O)c1cnc(-c2cc3nccc(-c4cc(F)c(OC5CCOCC5)c(C#N)c4)c3o2)c(F)c1` [Compound 247, 6-(7-(3-cyano-5-fluoro-4-(tetrahydro-2H-pyran-4-yloxy)phenyl)furo[3,2-b]pyridin-2-yl)-5-fluoro-N,N-dimethylnicotinamide] was tested. Which pIC50 [1] did it give?
**A.** 6.00 to 7.00

**Q.** What about the pIC50 [2] of the same molecule?
**A.** 6.00 to 7.00

**Q.** With `COc1cc(C(=O)N(C)C)ccc1-c1cc2ncc(C)c(-c3ccc(OC4CCOCC4)c(C#N)c3)c2o1` [Compound 269, 4-(7-(3-cyano-4-(tetrahydro-2H-pyran-4-yloxy)phenyl)-6-methylfuro[3,2-b]pyridin-2-yl)-3-methoxy-N,N-dimethylbenzamide hydrochloride] as the molecule, how does the pIC50 [1] read?
**A.** 6.00 to 7.00

**Q.** And the pIC50 [2]?
**A.** 6.00 to 7.00

**Q.** How did the pIC50 [1] turn out when `COc1cc(C(=O)N(C)CC(F)F)ccc1-c1cc2nccc(-c3ccc(OC4CCOCC4)c(C#N)c3)c2o1` [Compound 260] was run?
**A.** > 7.00

**Q.** What about the pIC50 [2] of the same molecule?
**A.** > 7.00

**Q.** Which results are given for `CC(C)(C)OC(=O)Nc1ccc(-c2cc3nccc(-c4ccc(OC5CCOCC5)c(C#N)c4)c3o2)cc1` [Compound 183]?
**A.** pIC50 [1]: 6.00 to 7.00; pIC50 [2]: 5.30 to 6.00
